Several values for one entry are separate records, joined by “and”; a condition that tells them apart may be missing. Equal values may be shown once. Read-outs that look alike come from different tables or passages of the source.
Columns and labels:
[1] = target: T1, human recombinant adrenergic α2B receptor (Homo sapiens, UniProt P18089); experiment: Radioligand binding, adrenergic α2B ([3H]Rauwolscine)
T1 construct: expressed in transfected cells; host or cells: CHO-K1
T1 sequence (P18089 1-450): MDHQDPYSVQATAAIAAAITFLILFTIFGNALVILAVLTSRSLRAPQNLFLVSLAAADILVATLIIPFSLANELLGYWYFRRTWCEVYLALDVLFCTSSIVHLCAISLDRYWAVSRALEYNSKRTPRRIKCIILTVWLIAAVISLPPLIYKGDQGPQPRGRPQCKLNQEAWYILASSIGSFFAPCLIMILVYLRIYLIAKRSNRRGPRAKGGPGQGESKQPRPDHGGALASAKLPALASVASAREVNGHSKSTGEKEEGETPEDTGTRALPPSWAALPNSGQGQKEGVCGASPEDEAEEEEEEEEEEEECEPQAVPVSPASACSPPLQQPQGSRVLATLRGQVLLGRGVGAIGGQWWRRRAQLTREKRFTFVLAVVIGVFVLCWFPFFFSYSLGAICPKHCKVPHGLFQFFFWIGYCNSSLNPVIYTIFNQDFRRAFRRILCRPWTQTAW
Summary of the method: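 Assay used CHO-K1-expressed human α2B receptor in Tris-HCl pH 7.4 buffer with MgCl2, EDTA and BSA; 60 min incubation at 25 °C.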

[2] = target: T2, human recombinant adrenergic α2A receptor (Homo sapiens, UniProt P08913); experiment: Radioligand binding, adrenergic α2A ([3H]MK-912)
T2 construct: expressed in transfected cells; host or cells: insect Sf9 cells
T2 sequence (P08913 1-465): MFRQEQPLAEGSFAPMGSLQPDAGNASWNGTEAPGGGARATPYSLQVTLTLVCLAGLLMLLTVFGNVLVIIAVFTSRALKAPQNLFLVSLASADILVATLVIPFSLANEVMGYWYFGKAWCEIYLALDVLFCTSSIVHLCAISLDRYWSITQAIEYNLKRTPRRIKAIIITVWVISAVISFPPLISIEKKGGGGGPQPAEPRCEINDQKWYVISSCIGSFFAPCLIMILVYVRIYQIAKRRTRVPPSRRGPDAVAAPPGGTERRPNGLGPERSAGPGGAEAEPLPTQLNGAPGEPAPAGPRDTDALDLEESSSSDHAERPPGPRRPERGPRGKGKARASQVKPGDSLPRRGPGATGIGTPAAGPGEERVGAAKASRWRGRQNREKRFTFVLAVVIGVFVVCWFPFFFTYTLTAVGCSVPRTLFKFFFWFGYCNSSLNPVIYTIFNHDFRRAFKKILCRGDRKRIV
Summary of the method: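 Sf9 membranes, 1 nM [3H]MK-912, 60 min, 25 °C, Tris-HCl pH 7.4/MgCl2/EDTA buffer. NSB: 10 μM WB-4101. Filtration, counting; % inhibition of specific binding.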

[3] = target: T3, rat adrenergic α1B receptor (Rattus norvegicus, UniProt P15823); experiment: Radioligand binding, adrenergic α1B ([3H]Prazosin)
T3 construct: rat adrenergic α1B receptor obtained from Wistar Rat liver; from tissue; host or cells: Wistar rat liver
T3 sequence (P15823 1-515): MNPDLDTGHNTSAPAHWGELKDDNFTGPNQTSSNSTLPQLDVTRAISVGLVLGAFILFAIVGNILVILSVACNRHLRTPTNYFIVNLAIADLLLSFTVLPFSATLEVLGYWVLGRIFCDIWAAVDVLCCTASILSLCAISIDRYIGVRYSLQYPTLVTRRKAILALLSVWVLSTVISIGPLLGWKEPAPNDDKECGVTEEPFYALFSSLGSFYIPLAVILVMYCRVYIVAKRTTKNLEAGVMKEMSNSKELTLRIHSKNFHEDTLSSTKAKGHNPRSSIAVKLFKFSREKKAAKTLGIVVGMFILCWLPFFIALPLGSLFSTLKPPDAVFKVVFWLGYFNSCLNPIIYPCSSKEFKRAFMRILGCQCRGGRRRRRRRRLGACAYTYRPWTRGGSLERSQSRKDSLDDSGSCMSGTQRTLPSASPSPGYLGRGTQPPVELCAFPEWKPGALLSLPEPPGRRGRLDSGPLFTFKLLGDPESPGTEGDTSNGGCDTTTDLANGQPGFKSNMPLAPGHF
Summary of the method: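 Specific binding, taken as total minus that remaining with 10 μM phentolamine, is measured after filtration and counting. Rat liver receptor preparation and 0.25 nM [3H]prazosin are incubated with compound in 50 mM Tris-HCl (pH 7.4, 0.5 mM EDTA) at 25° C for 60 min. Activity is reported as percent inhibition.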

[4] = target: T4, human recombinant adrenergic α1D receptor (Homo sapiens, UniProt P25100); experiment: Radioligand binding, adrenergic α1D ([3H]Prazosin)
T4 construct: expressed in transfected cells; host or cells: HEK-293
T4 sequence (P25100 1-572): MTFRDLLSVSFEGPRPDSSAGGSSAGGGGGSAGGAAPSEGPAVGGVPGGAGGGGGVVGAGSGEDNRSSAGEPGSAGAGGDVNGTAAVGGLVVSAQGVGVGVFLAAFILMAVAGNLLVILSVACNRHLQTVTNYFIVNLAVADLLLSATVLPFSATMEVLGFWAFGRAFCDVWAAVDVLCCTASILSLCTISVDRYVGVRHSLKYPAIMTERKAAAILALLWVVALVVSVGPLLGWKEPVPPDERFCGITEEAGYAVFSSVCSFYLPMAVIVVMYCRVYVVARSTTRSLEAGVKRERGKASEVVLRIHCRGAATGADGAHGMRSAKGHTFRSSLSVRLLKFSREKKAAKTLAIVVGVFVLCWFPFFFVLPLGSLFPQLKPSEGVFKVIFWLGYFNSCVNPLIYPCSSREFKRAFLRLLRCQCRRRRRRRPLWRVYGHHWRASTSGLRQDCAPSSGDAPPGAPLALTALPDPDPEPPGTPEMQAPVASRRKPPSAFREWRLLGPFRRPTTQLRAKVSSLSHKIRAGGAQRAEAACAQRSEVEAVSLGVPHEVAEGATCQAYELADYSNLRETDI
Experimental: Compounds were incubated with 0.6 nM [3H]Prazosin for 60 min at 25° C. Non-specific binding was estimated in the presence of 10 μM phentolamine. Receptor proteins were filtered and washed, the filters were then counted to determine [3H]Prazosin specifically bound. […] Biochemical assay results are presented as the percent inhibition of specific binding in Table B1.

[5] = 0.1 μM compound, read-out: Percentage inhibition of ligand binding, Adrenergic α2B
[6] = 0.1 μM compound, read-out: Percentage inhibition of ligand binding, Adrenergic α2A
[7] = 0.1 μM compound, read-out: Percentage inhibition of ligand binding, Adrenergic α1B
[8] = 0.1 μM compound, read-out: Percentage inhibition of ligand binding, Adrenergic α1D
[9] = read-out: Percentage inhibition of ligand binding, Adrenergic α2B (0.1 μM), compound at 0.1 μM, [3H]Rauwolscine, repeat datapoints each shown
[10] = read-out: Percentage inhibition of ligand binding, Adrenergic α2A (0.1 μM), compound at 0.1 μM, [3H]MK-912, repeat datapoints each shown
[11] = read-out: Percentage inhibition of ligand binding, Adrenergic α1B (0.1 μM), compound at 0.1 μM, [3H]Prazosin, repeat datapoints each shown
[12] = read-out: Percentage inhibition of ligand binding, Adrenergic α1D (0.1 μM), compound at 0.1 μM, [3H]Prazosin, repeat datapoints each shown

| Compound | inhibition at 0.1 µM [1, 5] | inhibition at 0.1 µM [2, 6] | inhibition at 0.1 µM [3, 7] | inhibition at 0.1 µM [4, 8] | inhibition at 0.1 µM [1, 9] | inhibition at 0.1 µM [2, 10] | inhibition at 0.1 µM [3, 11] | inhibition at 0.1 µM [4, 12] | Percentage inhibition of ligand binding, Adrenergic α2A (0.1 μM) ([2]; compound at 0.1 μM, [3H]MK-912, repeat datapoints each shown, 0.1 µM) | inhibition at 0.03 µM ([2]; read-out: Percentage inhibition of ligand binding, Adrenergic α2A (0.03 μM), compound at 0.03 μM, [3H]MK-912, repeat datapoints each shown) |
| --- | --- | --- | --- | --- | --- | --- | --- | --- | --- | --- |
| Cc1ccc2c(c1)c1c(n2/C=C(\F)c2ccncc2)CCN(C)C1 [compound 105] |  |  |  |  | 68% | 14% | 57% | 36% |  |  |
| Cc1ccc(CCn2c3c(c4cccnc42)C2CCCN2CC3)cn1 (centres unmarked) [IV-4] |  |  |  |  | 56% | -3% | 2% | 15% |  |  |
| C/C(=C/n1c2c(c3cc(C)ccc31)CCN(C)CC2)c1ccc(Cl)cc1Cl [compound 226] |  |  |  |  | 83% | 85% | 88% | 48% |  |  |
| CCC1c2c(c3cc(Cl)ccc3n2CC(C)(O)c2ccc(F)cc2)CCN1C (centres unmarked) [II-161] |  |  |  |  | 13% | 7% | 7% | 2% |  |  |
| Cc1cc(Br)c2c(c1)c1c(n2CCc2ccc(C)nc2)CCN(C)C1 [II-39] | -14% | 27% | 16% | 13% |  |  |  |  |  |  |
| C=C(Cn1c2c(c3cc(Cl)ccc31)CN(C)CC2)c1ccncc1 [compound 116] |  |  |  |  | 75% | 22% | 23% | 26% |  |  |
| C/C(=C\n1c2c(c3cc(C)cc(C)c31)CN(C)CC2)c1ccc(C)nc1 [compound 188] |  |  |  |  | 105% |  | 60% | 48% | 66% and 90% | 35% |
| C/C(=C\n1c2c(c3cc(C)ccc31)C1CCC(C2)N1C)c1ccc(Cl)cc1Cl (centres unmarked) [compound 225] |  |  |  |  | 80% | 75% | 27% | 12% |  |  |
| C/C(=C\n1c2c(c3cc(C)ccc31)CCN(C)CC2)c1ccc(Cl)cc1Cl [compound 227] |  |  |  |  | 98% | 66% | 21% | -2% |  |  |
| CN1CCc2c(n(CC(O)c3ccccc3F)c3ccc(Cl)cc23)C1 (centres unmarked) [II-48] | 0% | 26% | 27% | 8% |  |  |  |  |  |  |
| C/C(=C\n1c2c(c3cc(C)ccc31)CN(C)CC2)c1ccc(CO)nc1 [compound 125, (E)-(5-(1-(2,8-dimethyl-3,4-dihydro-1H-pyrido[4,3-b]indol-5(2H)-yl)prop-1-en-2-yl)pyridin-2-yl)methanol] |  |  |  |  | 68% | -4% | -3% | 1% |  |  |
| Cc1ccc2c(c1)c1c(n2CCc2cncc(Cl)c2)CCN(C)CC1 [compound 92] |  |  |  |  | 77% | 30% | 77% | 46% |  |  |
| C/C(=C\n1c2c(c3cc(C)ccc31)CCN(C)C2C)c1ccccc1F (centres unmarked) [compound 96] |  |  |  |  | 71% | 29% | 25% | 3% |  |  |
| COc1ccc(C(C)(O)Cn2c3c(c4cc(C)ccc42)CN(C)CC3)cc1F (centres unmarked) [II-163] |  |  |  |  | 86% | 41% | 66% | 28% |  |  |
| Cc1ccc2c(c1)c1c(n2CC(=O)c2ccc(F)cc2)CCN(C)C1 [compound 94] |  |  |  |  | 66% | 11% | 40% | 10% |  |  |

Continued, values first:

| inhibition at 0.1 µM [1, 5] | inhibition at 0.1 µM [2, 6] | inhibition at 0.1 µM [3, 7] | inhibition at 0.1 µM [4, 8] | inhibition at 0.1 µM [1, 9] | inhibition at 0.1 µM [2, 10] | inhibition at 0.1 µM [3, 11] | inhibition at 0.1 µM [4, 12] | Percentage inhibition of ligand binding, Adrenergic α2A (0.1 μM) ([2]; compound at 0.1 μM, [3H]MK-912, repeat datapoints each shown, 0.1 µM) | inhibition at 0.03 µM ([2]; read-out: Percentage inhibition of ligand binding, Adrenergic α2A (0.03 μM), compound at 0.03 μM, [3H]MK-912, repeat datapoints each shown) | Compound |
| --- | --- | --- | --- | --- | --- | --- | --- | --- | --- | --- |
| 79% | 93% | 20% | 41% |  |  |  |  |  |  | Cc1ccc2c(c1)c1c(n2C2=C(c3cc4ccccc4s3)CCC2)CCN(C)C1 [compound 305, 5-(2-(benzo[b]thiophen-2-yl)cyclopent-1-enyl)-2,8-dimethyl-2,3,4,5-tetrahydro-1H-pyrido[4,3-b]indole] |
| 48% | 59% | 4% | 3% |  |  |  |  |  |  | Cc1ccc(CCn2c3c(c4ccc(Cl)cc42)CN(C)CC3)cn1 [compound 315] |
| 98% | 99% | 81% | 69% |  |  |  |  |  |  | C/C(=C/n1c2c(c3cc(C)ccc31)CN(C)CC2)c1sccc1C [compound 287] |
| 95% | 90% | 76% | 31% |  |  |  |  |  |  | C/C(=C\n1c2c(c3cc(Cl)ccc31)CCN(C)CC2)c1cccc(F)c1 [compound 248] |
| 50% | 91% | 92% | 71% |  |  |  |  |  |  | Cc1ccc2c(c1)c1c(n2CCc2ccc(C)nc2)C(c2ccccc2)N(C)CC1 (centres unmarked) [compound 314] |
|  |  |  |  | 96% | 80% | 48% | 11% |  |  | C/C(=C\n1c2c(c3cc(Cl)ccc31)CCN(C)CC2)c1ccccc1Cl [compound 235] |
| 71% | 62% | 16% | 51% |  |  |  |  |  |  | Cc1ccc2c(c1)c1c(n2C2=C(c3cnc(N(C)C)nc3)CCC2)CCN(C)C1 [compound 303, 5-(2-(2,8-dimethyl-3,4-dihydro-1H-pyrido[4,3-b]indol-5(2H)-yl)cyclopent-1-enyl)-N,N-dimethylpyrimidin-2-amine] |

From US8791132B2, “Compounds and methods for treatment of hypertension” (Medivation Technologies, Inc., priority 2011, dated 2014)
